Reference: patent US8791113B2, “2,4-diaryl-substituted [1,8] naphthyridines as kinase inhibitors for use against cancer” (Merck Patent GmbH, priority 2010, dated 2014)
pIC50: −log10 of the molar value.

What was measured:
[1] = tested on: TGF-beta-induced phosphorylation of Smad2 (Ser465/467) and Smad3 (Ser423/425) in Mv1-Lu cells; test: Inhibition of Smad2/3 phosphorylation in Mv1Lu cells (PathScan Phospho-Smad2 ELISA); assay type: cell-based, mink Mustela vison; settings: Neogale vison, Mv1-Lu cells, TGF-beta 1 5 ng/ml, Phospho-Smad2/3 ELISA, read-out: TβR activity (Example 51)
Summary of the method: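 Serum-starved mink Mv1-Lu lung epithelial cells were pretreated with compound for 1.5 h, then stimulated 1 h with 5 ng/ml TGF-beta 1 (0.2% DMSO). Phospho-Smad2/3 in lysates was quantified by ELISA against stimulated and unstimulated controls. IC50 was taken from dose-response fits.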

[2] = target: T1, GST-ALK5 (TGF-beta receptor kinase) (Homo sapiens, UniProt P36897); test: In-vitro (enzyme) kinase flashplate assay: GST-ALK5 phosphorylation of GST-SMAD2 with 33P-ATP; assay type: biochemical; settings: 384-well flashplate kinase assay, GST-ALK5 / GST-SMAD2, 33P-ATP, 30° C., 45 min; read-out: TβR activity (Example 50)
T1 sequence (P36897 34-503): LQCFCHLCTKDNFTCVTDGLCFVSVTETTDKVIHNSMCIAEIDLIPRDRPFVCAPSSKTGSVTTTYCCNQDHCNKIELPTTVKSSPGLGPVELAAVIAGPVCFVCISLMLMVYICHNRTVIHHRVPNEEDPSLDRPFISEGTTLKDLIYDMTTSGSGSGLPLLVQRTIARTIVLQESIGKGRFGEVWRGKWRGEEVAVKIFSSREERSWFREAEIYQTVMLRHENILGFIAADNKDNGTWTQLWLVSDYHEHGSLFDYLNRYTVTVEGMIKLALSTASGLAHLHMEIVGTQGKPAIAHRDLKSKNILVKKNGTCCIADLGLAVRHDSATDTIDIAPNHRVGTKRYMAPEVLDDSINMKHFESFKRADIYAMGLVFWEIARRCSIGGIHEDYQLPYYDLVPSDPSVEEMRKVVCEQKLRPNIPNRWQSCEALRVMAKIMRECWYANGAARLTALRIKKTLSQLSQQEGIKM
Summary of the method: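 Flashplate format: 31.2 nM GST-ALK5, 439 nM GST-SMAD2, 3 mM ATP with 33P-ATP in HEPES/MgCl2/MnCl2/DTT/BSA buffer, pH 7.4, 45 min at 30 °C, 5–10 compound concentrations. EDTA stop, saline washes, radioactivity counted. IC50 calculated from the counts.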

A pIC50 [1] greater than 6.00 and a pIC50 [2] greater than 6.00 were found for Fc1ccc(Cl)cc1-c1cc(-c2cccc3cnccc23)c2cccnc2n1 [Compound 2, 2-(5-Chloro-2-fluoro-phenyl)-4-isoquinolin-5-yl-[1,8]naphthyridine] in this work.
